Drawing on US10189816B2, “Substituted pyridines as inhibitors of human immunodeficiency virus replication” (priority 2015, dated 2019), this text covers EC50 for 17 compounds.

For this assay, the system named is NL-RLuc virus. Kind of assay: Inhibition of HIV replication (NL-RLuc reporter virus in MT-2 cells, luciferase readout). Format: cell-based. The note with it: Human immunodeficiency virus 1, MT2, 120 h. The essentials: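 Antiviral EC50 came from luciferase signal after 5-day multicycle replication of NL-RLuc virus in MT-2 cells with serially diluted compound (RPMI 1640, 10% heat-inactivated FBS), fitted by the median effect equation over at least 2 experiments.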

Read-outs that look alike come from different tables or passages of the source.

Consider `Cc1cc(Cl)ccc1CN1CCc2cc(-c3c(C)nc(C)c([C@H](OC(C)(C)C)C(=O)O)c3N3CCC(C)(C)CC3)ccc2C1` [Compound 131, (S)-2-(tert-butoxy)-2-(5-(2-(4-chloro-2-methylbenzyl)-1,2,3,4-tetrahydroisoquinolin-6-yl)-4-(4,4-dimethylpiperidin-1-yl)-2,6-dimethylpyridin-3-yl)acetic acid], for which, where the note is “read-out: Activity”, the EC50 was less than 0.1 µM.

For the compound `Cc1ccc(CN2CCc3cc(-c4c(C)nc(C)c([C@H](OC(C)(C)C)C(=O)O)c4N4CCC(C)(C)CC4)ccc3C2)cc1Cl` [Compound 132, (S)-2-(tert-butoxy)-2-(5-(2-(3-chloro-4-methylbenzyl)-1,2,3,4-tetrahydroisoquinolin-6-yl)-4-(4,4-dimethylpiperidin-1-yl)-2,6-dimethylpyridin-3-yl)acetic acid], the EC50 (read-out: Activity) is less than 0.1 µM.

For the compound `Cc1ccc(Cl)cc1CN1CCc2cc(-c3c(C)nc(C)c([C@H](OC(C)(C)C)C(=O)O)c3N3CCC(C)(C)CC3)ccc2C1` [Compound 133, (S)-2-(tert-butoxy)-2-(5-(2-(5-chloro-2-methylbenzyl)-1,2,3,4-tetrahydroisoquinolin-6-yl)-4-(4,4-dimethylpiperidin-1-yl)-2,6-dimethylpyridin-3-yl)acetic acid], the EC50 (read-out: Activity) is less than 0.1 µM.

For the compound `Cc1cc(CN2CCc3cc(-c4c(C)nc(C)c([C@H](OC(C)(C)C)C(=O)O)c4N4CCC(C)(C)CC4)ccc3C2)ccc1Cl` [Compound 134, (S)-2-(tert-butoxy)-2-(5-(2-(4-chloro-3-methylbenzyl)-1,2,3,4-tetrahydroisoquinolin-6-yl)-4-(4,4-dimethylpiperidin-1-yl)-2,6-dimethylpyridin-3-yl)acetic acid], the EC50 is, setting by setting: (read-out: Activity) less than 0.1 µM; (read-out: EC50 μM) 0.012 µM.

Consider `Cc1nc(C)c([C@H](OC(C)(C)C)C(=O)O)c(N2CCC(C)(C)CC2)c1-c1ccc2c(c1)CCN(Cc1c(F)cc(Cl)cc1F)C2` [Compound 135, (S)-2-(tert-butoxy)-2-(5-(2-(4-chloro-2,6-difluorobenzyl)-1,2,3,4-tetrahydroisoquinolin-6-yl)-4-(4,4-dimethylpiperidin-1-yl)-2,6-dimethylpyridin-3-yl)acetic acid], for which, under “read-out: Activity”, the EC50 was less than 0.1 µM.

`Cc1nc(C)c([C@H](OC(C)(C)C)C(=O)O)c(N2CCC(C)(C)CC2)c1-c1ccc2c(c1)CCN(Cc1c(F)cccc1Cl)C2` [Compound 136, (S)-2-(tert-butoxy)-2-(5-(2-(2-chloro-6-fluorobenzyl)-1,2,3,4-tetrahydroisoquinolin-6-yl)-4-(4,4-dimethylpiperidin-1-yl)-2,6-dimethylpyridin-3-yl)acetic acid]: the EC50 (read-out: Activity) was less than 0.1 µM.

As to `COc1ccc(CN2CCc3cc(-c4c(C)nc(C)c([C@H](OC(C)(C)C)C(=O)O)c4N4CCC(C)(C)CC4)ccc3C2)cc1Cl` [Compound 137, (S)-2-(tert-butoxy)-2-(5-(2-(3-chloro-4-methoxybenzyl)-1,2,3,4-tetrahydroisoquinolin-6-yl)-4-(4,4-dimethylpiperidin-1-yl)-2,6-dimethylpyridin-3-yl)acetic acid], the EC50 (read-out: Activity) is less than 0.1 µM.

`COc1cc(CN2CCc3cc(-c4c(C)nc(C)c([C@H](OC(C)(C)C)C(=O)O)c4N4CCC(C)(C)CC4)ccc3C2)ccc1Cl` [Compound 138, (S)-2-(tert-butoxy)-2-(5-(2-(4-chloro-3-methoxybenzyl)-1,2,3,4-tetrahydroisoquinolin-6-yl)-4-(4,4-dimethylpiperidin-1-yl)-2,6-dimethylpyridin-3-yl)acetic acid]: under “read-out: Activity”, the EC50 was less than 0.1 µM.

Regarding `COc1ccc(C(C)C)cc1CN1CCc2cc(-c3c(C)nc(C)c([C@H](OC(C)(C)C)C(=O)O)c3N3CCC(C)(C)CC3)ccc2C1` [Compound 139, (S)-2-(tert-butoxy)-2-(4-(4,4-dimethylpiperidin-1-yl)-5-(2-(5-isopropyl-2-methoxybenzyl)-1,2,3,4-tetrahydroisoquinolin-6-yl)-2,6-dimethylpyridin-3-yl)acetic acid], the EC50 was less than 0.1 µM (read-out: Activity) and 0.03 µM (read-out: EC50 μM).

Take `COc1cc(CN2CCc3cc(-c4c(C)nc(C)c([C@H](OC(C)(C)C)C(=O)O)c4N4CCC(C)(C)CC4)ccc3C2)ccc1C` [Compound 140, (S)-2-(tert-butoxy)-2-(4-(4,4-dimethylpiperidin-1-yl)-5-(2-(3-methoxy-4-methylbenzyl)-1,2,3,4-tetrahydroisoquinolin-6-yl)-2,6-dimethylpyridin-3-yl)acetic acid]: the EC50 (read-out: Activity) was less than 0.1 µM.

As for `COc1ccc(CN2CCc3cc(-c4c(C)nc(C)c([C@H](OC(C)(C)C)C(=O)O)c4N4CCC(C)(C)CC4)ccc3C2)cc1C` [Compound 141, (S)-2-(tert-butoxy)-2-(4-(4,4-dimethylpiperidin-1-yl)-5-(2-(4-methoxy-3-methylbenzyl)-1,2,3,4-tetrahydroisoquinolin-6-yl)-2,6-dimethylpyridin-3-yl)acetic acid], for the setting “read-out: Activity”, the EC50 is less than 0.1 µM.

On to `COc1c(F)cccc1CN1CCc2cc(-c3c(C)nc(C)c([C@H](OC(C)(C)C)C(=O)O)c3N3CCC(C)(C)CC3)ccc2C1` [Compound 142, (S)-2-(tert-butoxy)-2-(4-(4,4-dimethylpiperidin-1-yl)-5-(2-(3-fluoro-2-methoxybenzyl)-1,2,3,4-tetrahydroisoquinolin-6-yl)-2,6-dimethylpyridin-3-yl)acetic acid], for which, for the setting “read-out: Activity”, the EC50 was less than 0.1 µM.

As for `COc1ccc(CN2CCc3cc(-c4c(C)nc(C)c([C@H](OC(C)(C)C)C(=O)O)c4N4CCC(C)(C)CC4)ccc3C2)cc1C(C)C` [Compound 143, (S)-2-(tert-butoxy)-2-(4-(4,4-dimethylpiperidin-1-yl)-5-(2-(3-isopropyl-4-methoxybenzyl)-1,2,3,4-tetrahydroisoquinolin-6-yl)-2,6-dimethylpyridin-3-yl)acetic acid], the EC50 (read-out: Activity) is less than 0.1 µM.

Consider `Cc1nc(C)c([C@H](OC(C)(C)C)C(=O)O)c(N2CCC(C)(C)CC2)c1-c1ccc2c(c1)CCN(Cc1c(O)cc(F)cc1F)C2` [Compound 144, (S)-2-(tert-butoxy)-2-(5-(2-(2,4-difluoro-6-hydroxybenzyl)-1,2,3,4-tetrahydroisoquinolin-6-yl)-4-(4,4-dimethylpiperidin-1-yl)-2,6-dimethylpyridin-3-yl)acetic acid], for which the EC50 is less than 0.1 µM (read-out: Activity) and 0.008 µM (read-out: EC50 μM).

On to `COc1cccc(Cl)c1CN1CCc2cc(-c3c(C)nc(C)c([C@H](OC(C)(C)C)C(=O)O)c3N3CCC(C)(C)CC3)ccc2C1` [Compound 145, (S)-2-(tert-butoxy)-2-(5-(2-(2-chloro-6-methoxybenzyl)-1,2,3,4-tetrahydroisoquinolin-6-yl)-4-(4,4-dimethylpiperidin-1-yl)-2,6-dimethylpyridin-3-yl)acetic acid], for which the EC50 (read-out: Activity) was less than 0.1 µM.

Turning to `COc1ccc(CN2CCc3cc(-c4c(C)nc(C)c([C@H](OC(C)(C)C)C(=O)O)c4N4CCC(C)(C)CC4)ccc3C2)c(F)c1` [Compound 146, (S)-2-(tert-butoxy)-2-(4-(4,4-dimethylpiperidin-1-yl)-5-(2-(2-fluoro-4-methoxybenzyl)-1,2,3,4-tetrahydroisoquinolin-6-yl)-2,6-dimethylpyridin-3-yl)acetic acid], for the setting “read-out: Activity”, the EC50 was less than 0.1 µM.

For `COc1ccc(CN2CCc3cc(-c4c(C)nc(C)c([C@H](OC(C)(C)C)C(=O)O)c4N4CCC(C)(C)CC4)ccc3C2)c(C)c1C` [Compound 147, (S)-2-(tert-butoxy)-2-(4-(4,4-dimethylpiperidin-1-yl)-5-(2-(4-methoxy-2,3-dimethylbenzyl)-1,2,3,4-tetrahydroisoquinolin-6-yl)-2,6-dimethylpyridin-3-yl)acetic acid], the EC50 (read-out: Activity) was less than 0.1 µM.
